Laboratory results taken from ChEMBL document CHEMBL1909046, “DrugMatrix in vitro pharmacology data”.

Assays:
[1] = biological target: T1, Cholecystokinin receptor type A (Homo sapiens, UniProt P32238); assay type: cell membranes, Membrane; conditions: 1321-n1; note: in other assays of this panel Not Active means under 50% inhibition at 10 µM
T1 sequence (P32238 whole entry): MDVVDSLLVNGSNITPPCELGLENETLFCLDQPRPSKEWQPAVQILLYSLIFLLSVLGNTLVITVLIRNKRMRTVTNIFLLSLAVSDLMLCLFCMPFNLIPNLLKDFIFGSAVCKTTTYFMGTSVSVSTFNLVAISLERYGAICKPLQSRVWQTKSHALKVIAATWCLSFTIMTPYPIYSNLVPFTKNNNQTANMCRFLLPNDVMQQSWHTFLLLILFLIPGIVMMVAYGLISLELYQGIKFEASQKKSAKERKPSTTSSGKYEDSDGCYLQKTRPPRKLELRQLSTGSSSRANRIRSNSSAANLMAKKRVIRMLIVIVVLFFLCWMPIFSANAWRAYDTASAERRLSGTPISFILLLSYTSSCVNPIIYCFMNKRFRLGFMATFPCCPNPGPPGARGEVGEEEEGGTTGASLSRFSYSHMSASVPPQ

[2] = DRUGMATRIX: GABAA, Flunitrazepam, Central radioligand binding (ligand: [3H] Flunitrazepam); assay type: cell membranes, Rattus norvegicus, Wistar, Brain, Membrane; conditions: Not Active = under 50% inhibition at 10 µM
[3] = biological target: T2, Nitric oxide synthase, inducible (Mus musculus, UniProt P29477); design: species or system Escherichia coli;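 note: inhibition of iNOS enzyme activity measured with L-arginine as substrate; in other assays of this panel Not Active means under 50% inhibition at 10 µM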
T2 sequence (P29477 whole entry): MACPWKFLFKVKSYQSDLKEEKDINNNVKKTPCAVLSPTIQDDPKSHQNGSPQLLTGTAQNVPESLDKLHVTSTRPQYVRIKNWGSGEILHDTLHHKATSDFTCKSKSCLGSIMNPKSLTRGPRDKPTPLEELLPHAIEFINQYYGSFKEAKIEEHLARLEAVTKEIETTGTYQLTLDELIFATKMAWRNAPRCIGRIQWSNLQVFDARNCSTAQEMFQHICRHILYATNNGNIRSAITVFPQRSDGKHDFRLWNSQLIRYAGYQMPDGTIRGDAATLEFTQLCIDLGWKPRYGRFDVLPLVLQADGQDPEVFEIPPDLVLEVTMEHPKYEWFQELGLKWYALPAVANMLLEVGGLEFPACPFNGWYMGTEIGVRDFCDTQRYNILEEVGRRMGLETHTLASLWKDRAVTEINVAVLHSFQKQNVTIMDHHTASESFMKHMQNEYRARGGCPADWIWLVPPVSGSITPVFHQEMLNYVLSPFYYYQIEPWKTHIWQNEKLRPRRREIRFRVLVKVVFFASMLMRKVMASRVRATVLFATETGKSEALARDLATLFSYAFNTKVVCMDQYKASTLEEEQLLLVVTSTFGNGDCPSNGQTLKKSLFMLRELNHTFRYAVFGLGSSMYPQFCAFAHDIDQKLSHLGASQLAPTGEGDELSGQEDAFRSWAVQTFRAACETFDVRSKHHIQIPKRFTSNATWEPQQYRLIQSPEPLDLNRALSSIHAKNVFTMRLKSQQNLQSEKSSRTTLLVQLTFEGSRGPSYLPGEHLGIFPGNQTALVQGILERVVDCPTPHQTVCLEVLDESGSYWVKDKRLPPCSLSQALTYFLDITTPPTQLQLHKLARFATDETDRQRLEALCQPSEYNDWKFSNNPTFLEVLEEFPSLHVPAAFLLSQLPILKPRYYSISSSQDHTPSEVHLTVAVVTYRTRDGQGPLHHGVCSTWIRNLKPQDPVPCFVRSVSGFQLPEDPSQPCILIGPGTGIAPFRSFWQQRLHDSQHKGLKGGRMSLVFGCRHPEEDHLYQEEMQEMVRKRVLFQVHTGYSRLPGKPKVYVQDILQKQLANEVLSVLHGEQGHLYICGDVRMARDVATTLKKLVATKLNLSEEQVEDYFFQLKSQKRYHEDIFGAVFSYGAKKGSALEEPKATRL

[4] = biological target: Platelet-activating factor receptor (Homo sapiens, UniProt P25105); assay type: tissue-based; note: in other assays of this panel Not Active means under 50% inhibition at 10 µM
Chain of Platelet-activating factor receptor (P25105 whole entry): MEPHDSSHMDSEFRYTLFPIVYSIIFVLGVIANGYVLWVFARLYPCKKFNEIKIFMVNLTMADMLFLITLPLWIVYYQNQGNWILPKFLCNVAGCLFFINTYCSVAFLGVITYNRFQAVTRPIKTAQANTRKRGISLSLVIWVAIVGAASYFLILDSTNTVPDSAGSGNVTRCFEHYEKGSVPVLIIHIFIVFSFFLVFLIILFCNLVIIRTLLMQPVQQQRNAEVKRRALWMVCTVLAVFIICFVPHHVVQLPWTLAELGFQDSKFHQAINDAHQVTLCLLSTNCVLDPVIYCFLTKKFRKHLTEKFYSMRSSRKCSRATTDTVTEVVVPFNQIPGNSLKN

[5] = biological target: Epidermal growth factor receptor (Homo sapiens, UniProt P00533); experiment: DRUGMATRIX: Protein Tyrosine Kinase, EGF Receptor enzyme inhibition (substrate: Poly(Glu:Tyr)); assay type: cell-based, Insect cells; conditions: insect cells; Not Active = under 50% inhibition at 10 µM
Chain of Epidermal growth factor receptor (P00533 whole entry): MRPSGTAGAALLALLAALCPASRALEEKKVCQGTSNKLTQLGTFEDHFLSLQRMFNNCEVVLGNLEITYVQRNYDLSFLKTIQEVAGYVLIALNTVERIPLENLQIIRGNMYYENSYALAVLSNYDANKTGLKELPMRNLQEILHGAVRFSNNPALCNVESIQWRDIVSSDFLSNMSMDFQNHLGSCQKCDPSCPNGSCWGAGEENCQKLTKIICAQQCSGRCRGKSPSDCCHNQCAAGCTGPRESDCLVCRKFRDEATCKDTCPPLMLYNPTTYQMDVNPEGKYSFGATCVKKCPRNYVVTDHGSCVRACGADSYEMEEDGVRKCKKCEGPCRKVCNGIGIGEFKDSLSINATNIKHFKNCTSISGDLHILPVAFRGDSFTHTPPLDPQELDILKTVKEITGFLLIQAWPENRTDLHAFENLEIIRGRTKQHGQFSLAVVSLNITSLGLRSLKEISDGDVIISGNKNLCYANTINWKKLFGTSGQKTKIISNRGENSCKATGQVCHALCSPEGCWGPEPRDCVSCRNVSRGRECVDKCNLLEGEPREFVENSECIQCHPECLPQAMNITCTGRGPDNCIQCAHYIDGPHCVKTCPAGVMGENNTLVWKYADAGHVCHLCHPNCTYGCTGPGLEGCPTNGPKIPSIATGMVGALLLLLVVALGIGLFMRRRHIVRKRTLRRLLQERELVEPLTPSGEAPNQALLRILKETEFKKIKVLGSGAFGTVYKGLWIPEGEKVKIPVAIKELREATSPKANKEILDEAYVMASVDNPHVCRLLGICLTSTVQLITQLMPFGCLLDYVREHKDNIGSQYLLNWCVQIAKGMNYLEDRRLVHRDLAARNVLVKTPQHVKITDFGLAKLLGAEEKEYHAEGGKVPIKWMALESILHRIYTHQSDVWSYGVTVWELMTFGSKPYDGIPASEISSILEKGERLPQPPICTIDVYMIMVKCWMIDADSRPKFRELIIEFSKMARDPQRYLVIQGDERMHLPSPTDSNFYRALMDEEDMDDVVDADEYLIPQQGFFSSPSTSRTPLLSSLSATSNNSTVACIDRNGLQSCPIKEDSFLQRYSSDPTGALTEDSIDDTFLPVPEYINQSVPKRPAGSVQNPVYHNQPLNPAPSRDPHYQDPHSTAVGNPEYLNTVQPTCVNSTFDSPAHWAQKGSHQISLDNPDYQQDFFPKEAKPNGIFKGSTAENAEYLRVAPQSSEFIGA

[6] = biological target: Receptor tyrosine-protein kinase erbB-2 (Homo sapiens, UniProt P04626); experiment: biochemical; assay type: cell-based, Insect cells; conditions: insect cells;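 note: inhibition of HER2 kinase enzyme activity, measured with Poly(Glu:Tyr) as the phosphorylation substrate; in other assays of this panel Not Active means under 50% inhibition at 10 µM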
Chain of Receptor tyrosine-protein kinase erbB-2 (P04626 whole entry): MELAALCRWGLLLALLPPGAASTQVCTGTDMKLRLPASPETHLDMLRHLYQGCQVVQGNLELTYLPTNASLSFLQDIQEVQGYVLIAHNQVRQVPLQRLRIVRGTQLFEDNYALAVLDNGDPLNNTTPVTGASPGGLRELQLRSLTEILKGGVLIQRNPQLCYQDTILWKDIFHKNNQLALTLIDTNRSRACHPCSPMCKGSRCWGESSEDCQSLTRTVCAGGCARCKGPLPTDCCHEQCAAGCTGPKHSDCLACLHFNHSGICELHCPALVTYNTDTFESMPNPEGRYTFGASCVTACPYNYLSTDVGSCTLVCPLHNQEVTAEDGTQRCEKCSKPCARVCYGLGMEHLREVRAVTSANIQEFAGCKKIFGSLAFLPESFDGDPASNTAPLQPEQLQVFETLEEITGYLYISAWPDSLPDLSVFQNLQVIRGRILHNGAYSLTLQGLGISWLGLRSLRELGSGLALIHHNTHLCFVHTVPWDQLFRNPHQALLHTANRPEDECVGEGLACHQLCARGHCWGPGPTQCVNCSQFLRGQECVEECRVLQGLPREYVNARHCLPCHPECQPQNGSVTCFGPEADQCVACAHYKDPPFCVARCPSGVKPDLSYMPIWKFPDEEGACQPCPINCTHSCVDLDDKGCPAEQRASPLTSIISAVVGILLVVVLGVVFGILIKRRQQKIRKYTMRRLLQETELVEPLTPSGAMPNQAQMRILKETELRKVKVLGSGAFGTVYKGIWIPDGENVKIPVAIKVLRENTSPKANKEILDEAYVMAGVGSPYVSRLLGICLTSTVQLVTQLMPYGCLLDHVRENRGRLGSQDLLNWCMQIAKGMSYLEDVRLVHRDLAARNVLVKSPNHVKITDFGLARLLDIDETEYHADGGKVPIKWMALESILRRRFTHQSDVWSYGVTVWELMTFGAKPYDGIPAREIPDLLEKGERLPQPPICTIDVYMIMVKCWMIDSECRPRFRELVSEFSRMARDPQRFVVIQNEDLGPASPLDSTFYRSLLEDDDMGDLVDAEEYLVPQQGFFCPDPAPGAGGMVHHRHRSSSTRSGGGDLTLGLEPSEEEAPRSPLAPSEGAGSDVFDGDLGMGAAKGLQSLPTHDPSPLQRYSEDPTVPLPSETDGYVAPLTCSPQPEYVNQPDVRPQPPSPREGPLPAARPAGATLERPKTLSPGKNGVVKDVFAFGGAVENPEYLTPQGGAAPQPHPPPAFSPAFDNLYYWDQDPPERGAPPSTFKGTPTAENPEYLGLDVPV

[7] = biological target: Estrogen receptor beta (Homo sapiens, UniProt Q92731); conditions: sf9; note: in other assays of this panel Not Active means under 50% inhibition at 10 µM
Chain of Estrogen receptor beta (Q92731 whole entry): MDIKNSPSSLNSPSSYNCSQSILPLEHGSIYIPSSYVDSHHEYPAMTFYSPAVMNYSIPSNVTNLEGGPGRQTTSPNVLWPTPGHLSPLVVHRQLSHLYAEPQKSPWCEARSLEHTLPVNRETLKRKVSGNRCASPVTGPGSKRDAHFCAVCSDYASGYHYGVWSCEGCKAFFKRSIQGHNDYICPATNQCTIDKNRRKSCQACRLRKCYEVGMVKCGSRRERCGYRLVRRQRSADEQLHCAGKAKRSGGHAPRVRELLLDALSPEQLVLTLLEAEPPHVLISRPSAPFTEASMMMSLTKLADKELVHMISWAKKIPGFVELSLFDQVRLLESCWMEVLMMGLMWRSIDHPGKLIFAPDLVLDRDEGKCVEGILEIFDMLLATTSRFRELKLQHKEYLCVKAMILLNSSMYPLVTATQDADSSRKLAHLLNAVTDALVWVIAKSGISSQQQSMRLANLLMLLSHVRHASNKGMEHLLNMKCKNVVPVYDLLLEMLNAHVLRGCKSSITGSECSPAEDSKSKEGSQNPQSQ

Row | Compound | IC50 [1] | IC50 [2] | Ki [2] | IC50 [3] | IC50 [4] | IC50 [5] | IC50 [6] | IC50 [7] | IC50 ([2]; read-out: IC50) [nM] | Ki ([2]; read-out: Ki) [nM]
1 | CC(O)COC[C@H]1O[C@@H]2O[C@H]3[C@H](O)[C@@H](O)[C@@H](O[C@H]4[C@H](O)[C@@H](O)[C@@H](O[C@H]5[C@H](O)[C@@H](O)[C@@H](O[C@H]6[C@H](O)[C@@H](O)[C@@H](O[C@H]7[C@H](O)[C@@H](O)[C@@H](O[C@H]8[C@H](O)[C@@H](O)[C@@H](O[C@H]1[C@H](O)[C@H]2O)O[C@@H]8COCC(C)O)O[C@@H]7COCC(C)O)O[C@@H]6COCC(C)O)O[C@@H]5COCC(C)O)O[C@@H]4COCC(C)O)O[C@@H]3COCC(C)O (stereo partly drawn) [2-HYDROXYPROPYL-BETA-CYCLODEXTRIN] | Not Active | Not Active | Not Active | Not Active | Not Active | Not Active | Not Active | Not Active |  | 
2 | NC(=O)c1cccc(N)c1 [3-AMINOBENZAMIDE] | Not Active | Not Active | Not Active | Not Active | Not Active | Not Active | Not Active | Not Active |  | 
3 | C[C@H]1O[C@H](O[C@H]2[C@H](O)[C@@H](O)[C@@H](O[C@H]3[C@H](O)[C@@H](O)C(O)O[C@@H]3CO)O[C@@H]2CO)[C@H](O)[C@@H](O)[C@@H]1N[C@H]1C=C(CO)[C@@H](O)[C@H](O)[C@H]1O (stereo partly specified) [ACARBOSE] | Not Active | Not Active | Not Active | Not Active | Not Active | Not Active | Not Active | Not Active |  | 
4 | CC[C@H]1[C@@H]2C[C@H]3[C@@H]4N(C)c5ccccc5[C@]45C[C@@H]([C@@H]2[C@H]5O)N3[C@@H]1O [AJMALINE] | Not Active | Not Active | Not Active | Not Active | Not Active | Not Active | Not Active | Not Active |  | 
5 | NCCCNCCSP(=O)(O)O [AMIFOSTINE] | Not Active | Not Active | Not Active | Not Active | Not Active | Not Active | Not Active | Not Active |  | 
6 | CN(C)CCC=C1c2ccccc2CCc2ccccc21 [AMITRIPTYLINE] | Not Active | Not Active | Not Active | Not Active | Not Active | Not Active | Not Active | Not Active |  | 
7 | CC(=O)Oc1ccccc1C(=O)O [ASPIRIN] | Not Active | Not Active | Not Active | Not Active | Not Active | Not Active | Not Active | Not Active |  | 
8 | CC(=O)OC[C@H]1O[C@@H](n2ncc(=O)[nH]c2=O)[C@H](OC(C)=O)[C@@H]1OC(C)=O [AZARIBINE] | Not Active | Not Active | Not Active | Not Active | Not Active | Not Active | Not Active | Not Active |  | 
9 | C[C@H]1[C@H](NC(=O)/C(=N\OC(C)(C)C(=O)O)c2csc(N)n2)C(=O)N1S(=O)(=O)O [AZTREONAM] | Not Active | Not Active | Not Active | Not Active | Not Active | Not Active | Not Active | Not Active |  | 
10 | O=C(O)CCNC(=O)c1ccc(/N=N/c2ccc(O)c(C(=O)O)c2)cc1 [BALSALAZIDE] | Not Active | Not Active | Not Active | Not Active | Not Active | Not Active | Not Active | Not Active |  | 
11 | ClC(Cl)(Cl)Cl [CARBON TETRACHLORIDE] | Not Active | Not Active | Not Active | Not Active | Not Active | Not Active | Not Active | Not Active |  | 
12 | CO/N=C(\C(=O)N[C@@H]1C(=O)N2C(C(=O)O)=C(COC(C)=O)CS[C@H]12)c1csc(N)n1 [CEFOTAXIME] | Not Active | Not Active | Not Active | Not Active | Not Active | Not Active | Not Active | Not Active |  | 
13 | CNC1=Nc2ccc(Cl)cc2C(c2ccccc2)=[N+]([O-])C1 [CHLORDIAZEPOXIDE] | Not Active |  |  | Not Active | Not Active | Not Active | Not Active | Not Active | 1430 | 1160
14 | Cc1cc(O)cc(C)c1Cl [CHLOROXYLENOL] | Not Active | Not Active | Not Active | Not Active | Not Active | Not Active | Not Active | Not Active |  | 
15 | CCCNC(=O)NS(=O)(=O)c1ccc(Cl)cc1 [CHLORPROPAMIDE] | Not Active | Not Active | Not Active | Not Active | Not Active | Not Active | Not Active | Not Active |  | 
16 | NS(=O)(=O)c1cc(C2(O)NC(=O)c3ccccc32)ccc1Cl (stereo unspecified) [CHLORTHALIDONE] | Not Active | Not Active | Not Active | Not Active | Not Active | Not Active | Not Active | Not Active |  | 
17 | O=C(O)CC(O)(CC(=O)O)C(=O)O [CITRIC ACID] | Not Active | Not Active | Not Active | Not Active | Not Active | Not Active | Not Active | Not Active |  | 
18 | CN1CCN(C(c2ccccc2)c2ccccc2)CC1 [CYCLIZINE] | Not Active | Not Active | Not Active | Not Active | Not Active | Not Active | Not Active | Not Active |  | 
19 | CN1C[C@@H]2C[C@H]1CN2c1cc2c(cc1F)c(=O)c(C(=O)O)cn2C1CC1 [DANOFLOXACIN] | Not Active | Not Active | Not Active | Not Active | Not Active | Not Active | Not Active | Not Active |  | 
20 | COc1cccc2c1C(=O)c1c(O)c3c(c(O)c1C2=O)C[C@@](O)(C(C)=O)C[C@@H]3O[C@H]1C[C@H](N)[C@H](O)[C@H](C)O1 [DAUNORUBICIN] | Not Active | Not Active | Not Active | Not Active | Not Active | Not Active | Not Active | Not Active |  | 
21 | O=C(O)c1cc(-c2ccc(F)cc2F)ccc1O [DIFLUNISAL] | Not Active | Not Active | Not Active | Not Active | Not Active | Not Active | Not Active | Not Active |  | 
22 | CC1=NN(c2ccccc2)C(=O)C1 [EDARAVONE] | Not Active | Not Active | Not Active | Not Active | Not Active | Not Active | Not Active | Not Active |  | 
